Results taken from ChEMBL document CHEMBL5335775, “Bioisosteric replacement of 1H-1,2,3-triazole with 1H-tetrazole ring enhances anti-leukemic activity of (5-benzylthiazol-2-yl)benzamides” (Eur J Med Chem, 2023).

Key:
T47D = test: Antiproliferative activity against human T47D cells assessed as inhibition of cell proliferation measured after 48 hrs by SRB assay; type: functional, cell-based
HeLa = test: Antiproliferative activity against human HeLa cells assessed as inhibition of cell proliferation measured after 48 hrs by MTT assay; type: functional, cell-based
[1] = Antiproliferative activity against NIH3T3 cells assessed as inhibition of cell proliferation measured after 72 hrs by MTT assay; type: toxicity, cell-based; conditions: mouse
KM12 = test: Anticancer activity against human KM12 cells assessed as cell growth at 10^-5 M incubated for 48 hrs by SRB assay relative to control; type: functional; conditions: KM12, 48 h, dose 1 10^-5M, read-out: Activity
MDA-MB-435 = test: Anticancer activity against human MDA-MB-435 cells assessed as cell growth at 10^-5 M incubated for 48 hrs by SRB assay relative to control; type: functional; conditions: MDA-MB-435, 48 h, dose 1 10^-5M, read-out: Activity
NCI-H460 = test: Anticancer activity against human NCI-H460 cells assessed as cell growth at 10^-5 M incubated for 48 hrs by SRB assay relative to control; type: functional; conditions: NCI-H460, 48 h, dose 1 10^-5M, read-out: Activity
SK-MEL-5 = test: Anticancer activity against human SK-MEL-5 cells assessed as cell growth at 10^-5 M incubated for 48 hrs by SRB assay relative to control; type: functional; conditions: SK-MEL-5, 48 h, dose 1 10^-5M, read-out: Activity
MOLT-4 = test: Anticancer activity against human MOLT-4 cells assessed as cell growth at 10^-5 M incubated for 48 hrs by SRB assay relative to control; type: functional; conditions: MOLT-4, 48 h, dose 1 10^-5M, read-out: Activity
OVCAR-4 = test: Anticancer activity against human OVCAR-4 cells assessed as cell growth at 10^-5 M incubated for 48 hrs by SRB assay relative to control; type: functional; conditions: OVCAR-4, 48 h, dose 1 10^-5M, read-out: Activity
K562 [2] = test: Antiproliferative activity against human K562 cells assessed as inhibition of cell proliferation measured after 72 hrs by MTT assay; type: functional, cell-based; conditions: K562, 72 h
[3] = Antiproliferative activity against J774.2 cells assessed as inhibition of cell proliferation measured after 72 hrs by MTT assay; type: toxicity, cell-based; conditions: mouse
[4] = Antiproliferative activity against human HaCaT cells assessed as inhibition of cell proliferation measured after 72 hrs by MTT assay; type: toxicity, cell-based
[5] = Selectivity index, ratio of IC50 for […] to IC50 for human K562 cells; type: functional
K562 [6] = test: Anticancer activity against human K562 cells assessed as cell growth at 10^-5 M incubated for 48 hrs by SRB assay relative to control; type: functional; conditions: K562, 48 h, dose 1 10^-5M, read-out: Activity
A549 = test: Anticancer activity against human A549 cells assessed as cell growth at 10^-5 M incubated for 48 hrs by SRB assay relative to control; type: functional; conditions: A549, 48 h, dose 1 10^-5M, read-out: Activity
ACHN = test: Anticancer activity against human ACHN cells assessed as cell growth at 10^-5 M incubated for 48 hrs by SRB assay relative to control; type: functional; conditions: dose 1 10^-5M, read-out: Activity
CAKI-1 = test: Anticancer activity against human CAKI-1 cells assessed as cell growth at 10^-5 M incubated for 48 hrs by SRB assay relative to control; type: functional; conditions: CAKI-1, 48 h, dose 1 10^-5M, read-out: Activity
HCT-15 [7] = test: Anticancer activity against human HCT-15 cells assessed as cell growth at 10^-5 M incubated for 48 hrs by SRB assay relative to control; type: functional; conditions: HCT-15, 48 h, dose 1 10^-5M, read-out: Activity
UACC-62 [8] = test: Anticancer activity against human UACC-62 cells assessed as cell growth at 10^-5 M incubated for 48 hrs by SRB assay relative to control; type: functional; conditions: UACC-62, 48 h, dose 1 10^-5M, read-out: Activity
MCF7 = test: Anticancer activity against human MCF7 cells assessed as cell growth at 10^-5 M incubated for 48 hrs by SRB assay relative to control; type: functional; conditions: MCF7, 48 h, dose 1 10^-5M, read-out: Activity
NCI/ADR-RES = test: Anticancer activity against human NCI/ADR-RES cells assessed as cell growth at 10^-5 M incubated for 48 hrs by SRB assay relative to control; type: functional; conditions: dose 1 10^-5M, read-out: Activity
MDA-MB-468 = test: Anticancer activity against human MDA-MB-468 cells assessed as cell growth at 10^-5 M incubated for 48 hrs by SRB assay relative to control; type: functional; conditions: MDA-MB-468, 48 h, dose 1 10^-5M, read-out: Activity
SF-295 = test: Anticancer activity against human SF-295 cells assessed as cell growth at 10^-5 M incubated for 48 hrs by SRB assay relative to control; type: functional; conditions: SF-295, 48 h, dose 1 10^-5M, read-out: Activity
[9] = Selectivity index, ratio of IC50 for human HaCaT cells to IC50 for human K562 cells; type: toxicity; conditions: HaCaT cells and K562 cells, read-out: Ratio IC50
SW-620 = test: Inhibition of cell growth in human SW-620 cells incubated for 48 hrs by SRB assay; type: functional, cell-based; conditions: SW-620, 48 h
HCT-15 [10] = test: Inhibition of cell growth in human HCT-15 cells incubated for 48 hrs by SRB assay; type: functional, cell-based; conditions: HCT-15, 48 h
M14 [11] = test: Inhibition of cell growth in human M14 cells incubated for 48 hrs by SRB assay; type: functional, cell-based; conditions: M14, 48 h
LOX IMVI = test: Anticancer activity against human LOX IMVI cells assessed as cell growth at 10^-5 M incubated for 48 hrs by SRB assay relative to control; type: functional; conditions: dose 1 10^-5M, read-out: Activity
UACC-62 [12] = test: Inhibition of cell growth in human UACC-62 cells incubated for 48 hrs by SRB assay; type: functional, cell-based; conditions: UACC-62, 48 h
HCC 2998 = test: Anticancer activity against human HCC 2998 cells assessed as cell growth at 10^-5 M incubated for 48 hrs by SRB assay relative to control; type: functional; conditions: HCC 2998, 48 h, dose 1 10^-5M, read-out: Activity
K562 [13] = test: Inhibition of cell growth in human K562 cells incubated for 48 hrs by SRB assay; type: functional, cell-based; conditions: K562, 48 h
M14 [14] = test: Anticancer activity against human M14 cells assessed as cell growth at 10^-5 M incubated for 48 hrs by SRB assay relative to control; type: functional; conditions: M14, 48 h, dose 1 10^-5M, read-out: Activity
Hep 3B2 = test: Antiproliferative activity against human Hep3B cells assessed as inhibition of cell proliferation; type: functional, cell-based

Row | IC50 (K562 [2]) | Compound | IC50 at 72 h [1] | IC50 at 72 h [3] | IC50 at 72 h [4] | growth at 10 µM (K562 [6]) | growth at 10 µM (CAKI-1) | growth at 10 µM (UACC-62 [8]) | further results
1 | 23.7 µM | O=C(Nc1ncc(Cc2cccc(C(F)(F)F)c2)s1)c1ccc(-n2cnnn2)cc1 | > 100 µM | 43.2 µM | > 100 µM | 21% | 30.1% | 19.8% | growth at 10 µM (KM12): 28.8%; growth at 10 µM (MDA-MB-435): 24%; growth at 10 µM (NCI-H460): 30.5%; growth at 10 µM (SK-MEL-5): 37.8%; growth at 10 µM (MOLT-4): 39.4%; growth at 10 µM (OVCAR-4): 33.6%; Ratio IC50 [5]: 1.8; growth at 10 µM (A549): 34.4%; growth at 10 µM (ACHN): 32%; growth at 10 µM (HCT-15 [7]): 38.7%; growth at 10 µM (MCF7): 28.7%; growth at 10 µM (NCI/ADR-RES): 35.9%; growth at 10 µM (MDA-MB-468): 16.7%; growth at 10 µM (SF-295): 32.2%
2 | 8.3 µM | O=C(Nc1ncc(Cc2ccccc2)s1)c1ccc(-n2cnnn2)cc1 | > 100 µM | 48.1 µM | 33 µM | – | – | – | selectivity ratio [9]: 4
3 | 7.57 µM | O=C(Nc1ncc(Cc2cc(Cl)ccc2Cl)s1)c1ccc(-n2cnnn2)cc1 | > 100 µM | 34.7 µM | > 100 µM | 22.8% | 29% | 8.26% | growth at 10 µM (NCI-H460): 33%; growth at 10 µM (SK-MEL-5): 22.4%; IC50 (SW-620): 0.508 µM; IC50 (HCT-15 [10]): 0.894 µM; Ratio IC50 [5]: 4.6; IC50 (M14 [11]): 0.696 µM; growth at 10 µM (LOX IMVI): 22.6%; IC50 (UACC-62 [12]): 0.364 µM; growth at 10 µM (HCC 2998): 22.7%; IC50 (K562 [13]): 0.577 µM; growth at 10 µM (M14 [14]): 24.6%; growth at 10 µM (SF-295): 30.9%
4 | > 100 µM | COc1ccc(Cc2cnc(NC(=O)c3ccc(-n4cnnn4)cc3)s2)cc1 | > 100 µM | 8.22 µM | > 100 µM | 36.7% | – | – | –

Further lines, the molecule ahead of its results:

Row | Compound | IC50 (K562 [2]) | IC50 at 72 h [1] | IC50 at 72 h [3] | IC50 at 72 h [4] | growth at 10 µM (K562 [6]) | growth at 10 µM (CAKI-1) | growth at 10 µM (UACC-62 [8]) | further results
5 | O=C(Nc1ncc(Cc2cccc(Cl)c2Cl)s1)c1cc2ccccc2o1 | – | – | – | – | – | – | – | IC50 (T47D): 0.0255 µM
6 | CC(C)(C)c1nc(NC(=O)CN2CCN(c3ccc(O)cc3)CC2)sc1Cc1ccc(Cl)cc1 | – | – | – | – | – | – | – | IC50 (HeLa): 1.6 µM
7 | Cc1cccc(Cc2cnc(NC(=O)c3cccc(-n4cnnn4)c3)s2)c1 | > 100 µM | > 100 µM | 52.8 µM | > 100 µM | – | – | – | –
8 | Cc1ccc(Cc2cnc(NC(=O)c3ccc(-n4cnnn4)cc3)s2)cc1 | 8 µM | > 100 µM | 59.8 µM | 52.6 µM | 22.9% | 39.1% | 20.3% | selectivity ratio [9]: 6.6; growth at 10 µM (LOX IMVI): 39.4%; growth at 10 µM (ACHN): 39.5%
9 | O=C(CCc1ccco1)Nc1ncc(Cc2ccccc2)s1 | – | – | – | – | – | – | – | IC50 (Hep 3B2): 0.089 µM
